Assay results reported in US9302999B2, “Substituted triazoles as herbicides” (E. I. DU PONT DE NEMOURS AND COMPANY, priority 2012, dated 2016).

Legend:
Assay type in all cases: in vivo
[1] = test system: crabgrass, large (large crabgrass, Digitaria sanguinalis); assay: Test A pre-/postemergence: crabgrass, large; details: for Crabgrass, Large plant response rating: Postemergence; for Plant response rating, Crabgrass, Large: Preemergence
Method in brief: (§1)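 Each species received preemergence soil-directed spraying and, at the same time, postemergence treatment of seedlings 2–10 cm tall. Formulation: non-phytotoxic solvent mixture including surfactant. Response assessed visually about ten days on, relative to untreated controls, 0–100 scale.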

[2] = test system: foxtail, giant (giant foxtail, Setaria faberii); assay: Test A pre-/postemergence: foxtail, giant; details: for Foxtail, Giant plant response rating: Postemergence; for Plant response rating, Foxtail, Giant: Preemergence
Method in brief: as §1

[3] = test system: pigweed (Amaranthus retroflexus); assay: Test A pre-/postemergence: pigweed
Method in brief: as §1

[4] = test system: velvetleaf (Abutilon theophrasti); assay: Test A pre-/postemergence: velvetleaf
Method in brief: as §1

[5] = test system: ducksalad (Heteranthera limosa); assay: Test B flooded paddy: ducksalad; details: Flood; 250 g ai/ha; applied to paddy water at 2-leaf stage; visually evaluated after 13 to 15 days
Method in brief: (§2)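 At two leaves, seedlings received the test compound via the paddy water, pots having been flooded 3 cm over the soil surface and kept so. Greenhouse-held for 13 to 15 days, then judged by eye against controls on a scale running 0 (no effect) to 100 (complete control).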

[6] = test system: barnyardgrass (Echinochloa crus-galli); assay: Test B flooded paddy: barnyardgrass; details: Flood; 250 g ai/ha; applied to paddy water at 2-leaf stage; visually evaluated after 13 to 15 days
Method in brief: as §2

wild oat (Avena fatua) = assay: Test C pre-/postemergence: wild oat
Method in brief: (§3)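 Visual injury scored 0–100 (100 = complete control) against untreated controls after 13–15 greenhouse days. Surfactant-containing solvent formulations applied either to soil after sowing (loam/sand) or over 1- to 4-leaf plants, 2–18 cm tall.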

[7] = test system: foxtail, giant (giant foxtail, Setaria faberii); assay: Test C pre-/postemergence: foxtail, giant
Method in brief: as §3

kochia (Kochia scoparia) = assay: Test C pre-/postemergence: kochia
Method in brief: as §3

[8] = test system: ragweed (common ragweed, Ambrosia elation); assay: Test C pre-/postemergence: ragweed
Method in brief: as §3

[9] = test system: chickweed (common chickweed, Stellaria media); assay: Test C postemergence: chickweed
Method in brief: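 Seedlings are raised in pots of peat-based medium to 2–18 cm (1- to 4-leaf stage). The formulated compound is then applied postemergence. Plants stay in the greenhouse for 13 to 15 days and are rated visually against controls, where 0 means no effect and 100 complete control.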

[10] = 125 g ai/ha, 0 to 100 scale, 0 is no effect, 100 is complete control
[11] = 500 g ai/ha, visual rating on 0 to 100 scale (0 no effect, 100 complete control), approximately ten days
[12] = 125 g ai/ha, 0 to 100 scale where 0 is no effect and 100 is complete control
[13] = 500 g ai/ha, 0 to 100 scale (0 no effect, 100 complete control)
[14] = Postemergence, 125 g ai/ha, 0 to 100 scale, 0 is no effect, 100 is complete control
[15] = Preemergence, 125 g ai/ha, 0 to 100 scale where 0 is no effect and 100 is complete control
[16] = Preemergence, 500 g ai/ha, 0 to 100 scale (0 no effect, 100 complete control)
[17] = Postemergence, 31 g ai/ha, scale 0 to 100 (0 no effect, 100 complete control)
[18] = Postemergence, 62 g ai/ha, scale 0 to 100 (0 no effect, 100 complete control)
[19] = Postemergence, 125 g ai/ha, scale 0 to 100, 0 no effect, 100 complete control
[20] = Postemergence, 250 g ai/ha, scale 0 to 100
[21] = Preemergence, 31 g ai/ha, scale of 0 to 100, 0 is no effect, 100 is complete control
[22] = Preemergence, 62 g ai/ha, scale of 0 to 100, 0 is no effect, 100 is complete control
[23] = Preemergence, 125 g ai/ha, scale 0 to 100, 0 no effect, 100 complete control
[24] = Preemergence, 250 g ai/ha, scale 0 to 100, 0 no effect, 100 complete control

For `Cc1nn(-c2ccc(C(F)(F)F)c(F)c2)nc1Oc1ccnc(C(F)(F)F)c1` [Compound 148], the “Crabgrass, Large plant response rating” value [1, 10] was 80, the “Crabgrass, Large plant response rating” value [1, 11] was 80 and the “Plant response rating, Crabgrass, Large” value [1, 12] was 100. The “Plant response rating, Crabgrass, Large” value [1, 13] was 100, the “Foxtail, Giant plant response rating” value [2, 10] was 80 and the “Foxtail, Giant plant response rating” value [2, 11] was 80. For the same compound, the “Plant response rating, Foxtail, Giant” value [2, 12] was 100, the “Plant response rating, Foxtail, Giant” value [2, 13] was 100 and the “Plant response rating, Pigweed” value [3, 14] was 100. For the same compound, the “Pigweed plant response rating” value ([3]; Postemergence, 500 g ai/ha, visual rating on 0 to 100 scale (0 no effect, 100 complete control), approximately ten days) was 100, the “Plant response rating, Pigweed” value [3, 15] was 100 and the “Plant response rating, Pigweed” value [3, 16] was 100. The “Plant response rating, Velvetleaf” value [4, 14] was 100, the “Plant response rating, Velvetleaf” value [4, 15] was 20 and the “Plant response rating, Velvetleaf” value [4, 16] was 70. The “Plant response rating, Ducksalad (0 to 100 scale, 0 is no effect, 100 is complete control)” value [5] was 85, the “Plant response rating, Barnyardgrass (0 to 100 scale, 0 is no effect, 100 is complete control)” value [6] was 65 and the “Plant response rating, Oat, Wild” value (wild oat (Avena fatua); [17]) was 15. The “Plant response rating, Oat, Wild” value (wild oat (Avena fatua); [18]) was 45, the “Plant response rating, Oat, Wild” value (wild oat (Avena fatua); [19]) was 80 and the “Plant response rating, Oat, Wild” value (wild oat (Avena fatua); [20]) was 90. For the same compound, the “Plant response rating, Oat, Wild” value (wild oat (Avena fatua); [21]) was 35, the “Plant response rating, Oat, Wild” value (wild oat (Avena fatua); [22]) was 85 and the “Plant response rating, Oat, Wild” value (wild oat (Avena fatua); [23]) was 85. The “Plant response rating, Oat, Wild” value (wild oat (Avena fatua); [24]) was 85, the “Plant response rating, Foxtail, Giant” value [7, 17] was 10 and the “Plant response rating, Foxtail, Giant” value [7, 18] was 35. For the same compound, the “Plant response rating, Foxtail, Giant” value [7, 19] was 35, the “Plant response rating, Foxtail, Giant” value [7, 20] was 75 and the “Plant response rating, Foxtail, Giant” value [7, 21] was 98. For the same compound, the “Plant response rating, Foxtail, Giant” value [7, 22] was 100, the “Plant response rating, Foxtail, Giant” value [7, 23] was 100 and the “Plant response rating, Foxtail, Giant” value [7, 24] was 100. The “Plant response rating, Kochia” value (kochia (Kochia scoparia); [17]) was 80, the “Plant response rating, Kochia” value (kochia (Kochia scoparia); [18]) was 85 and the “Plant response rating, Kochia” value (kochia (Kochia scoparia); [19]) was 85. For the same compound, the “Plant response rating, Kochia” value (kochia (Kochia scoparia); [20]) was 95, the “Plant response rating, Kochia” value (kochia (Kochia scoparia); [21]) was 40 and the “Plant response rating, Kochia” value (kochia (Kochia scoparia); [22]) was 40. The “Plant response rating, Kochia” value (kochia (Kochia scoparia); [23]) was 90, the “Plant response rating, Kochia” value (kochia (Kochia scoparia); [24]) was 95 and the “Plant response rating, Ragweed” value [8, 17] was 65. The “Plant response rating, Ragweed” value [8, 18] was 85, the “Plant response rating, Ragweed” value [8, 19] was 85 and the “Plant response rating, Ragweed” value [8, 20] was 85. The “Plant response rating, Ragweed” value [8, 21] was 15, the “Plant response rating, Ragweed” value [8, 22] was 45 and the “Plant response rating, Ragweed” value [8, 23] was 55. The “Plant response rating, Ragweed” value [8, 24] was 70, the “Plant response rating, Chickweed” value ([9]; 31 g ai/ha, scale 0 to 100 (0 no effect, 100 complete control)) was 75 and the “Plant response rating, Chickweed” value ([9]; 62 g ai/ha, scale 0 to 100 (0 no effect, 100 complete control)) was 75. For the same compound, the “Plant response rating, Chickweed” value ([9]; 125 g ai/ha, scale 0 to 100, 0 no effect, 100 complete control) was 90 and the “Plant response rating, Chickweed” value ([9]; 250 g ai/ha, scale 0 to 100) was 98.
